In patent US10961229B2, “Selective NR2B antagonists” (Bristol-Myers Squibb Company, priority 2015, dated 2021):
pIC50, pKi: −log10 of the molar value. Read-outs that look alike come from different tables or passages of the source.

Columns and labels:
NR2B-subtype receptors = molecular target: T1, NR2B-subtype receptors (Mus musculus, UniProt P35438+Q01097); assay: Ex vivo occupancy assay; assay type: in vivo; conditions: for receptor occupancy at 3 mg/kg: mouse, iv
T1 construct: brain-resident NR2B-subtype receptors; from tissue; host or cells: forebrain membrane homogenates of dosed CD-1 mice
Method: Ex vivo occupancy assay. […] 7-9 weeks old male CD-1 mice were dosed intravenously in a vehicle consisting of 10% dimethylacetamide, 40% PEG-400, 30% hydroxypropyl betacyclodextrin, and 30% water with experimental compounds and the forebrains were harvested 15 minutes post-dosing by decapitation. The brain samples were immediately snap-frozen and stored at −80° C. On the following day, the dosed brain samples were thawed on ice for 15-20 minutes followed by homogenization using Polytron for 10 seconds in cold homogenization buffer composed of 50 mM KH2PO4 (pH adjusted to 7.4 with KOH), 1 mM EDTA, 0.005% Triton X 100 and protease inhibitor cocktail (Sigma Aldrich). The crude homogenates were further homogenized using a Dounce homogenizer and the homogenized membrane aliquots from all animals were flash-frozen and stored at −80° C. until further use. The whole homogenization process was performed on ice.
For determining occupancy, the membrane homogenates were first thawed on ice and then needle-homogenized using a 25 gauge needle. The homogenized membrane (6.4 mg/ml) was added to a 96-well plate followed by addition of ^3H Ro 25-6981 (6 nM). The reaction mixture was incubated for 5 minutes on a shaker at 4° C. and then harvested onto GF/B filter plates (treated with 0.5% PEI for 1 hr at room temperature). The filter plates were dried at 50° C. for 20 mins, incubated with microscint 20 for 10 minutes and read on TopCount (Perkin Elmer). Each dose or compound group consisted of 4-5 animals. The control group of animals was dosed with vehicle alone. Membrane from each animal was added in triplicates to the assay plate. Non-specific binding was determined using 10 μM Ro 25-6981 added to the wells containing membrane homogenates from vehicle-dosed animals. Specific counts/minute was converted to % occupancy at each dose of a compound for each animal using the following equation:
(§1) [formula] […] Drug levels were determined by mass spectroscopy in the usual manner. Drug levels in the blood plasma were 1018 nM in at this dose, and drug levels in the homogonized brain tissue were 1342 nM.

[1] = molecular target: T2, NR2B-subtype NMDA receptors (Rattus norvegicus, UniProt P35439+Q00960); assay: Radioligand binding assay (3H Ro 25-6981 competition); conditions: rat forebrain membranes, 3H Ro 25-6981 (4 nM)
T2 construct: from tissue; host or cells: rat forebrain membrane homogenate (Sprague Dawley, Harlan)
Method: Radioligand binding assay. Binding experiments to determine binding to NR2B-subtype NMDA receptors were performed on forebrains of 8-10 weeks old male Sprague Dawley rats (Harlan, Netherlands) using ^3H Ro 25-6981 (Mutel V; Buchy D; Klingelschmidt A; Messer J; Bleuel Z; Kemp J A; Richards J G. Journal of Neurochemistry, 1998, 70(5):2147-2155. Rats were decapitated without anesthesia using a Guillotine (approved by animal ethics committee) and the harvested brains were snap-frozen and stored at −80° C. for 3-6 months for membrane preparation.
For membrane preparation, rat forebrains were thawed on ice for 20 minutes in homogenization buffer composed of 50 mM KH2PO4 (pH adjusted to 7.4 with KOH), 1 mM EDTA, 0.005% Triton X 100 and protease inhibitor cocktail (Sigma Aldrich). Thawed brains were homogenized using a Dounce homogenizer and centrifuged at 48000×g for 20 min. The pellet was resuspended in cold buffer and homogenized again using a Dounce homogenizer. Subsequently, the homogenate was aliquoted, snap-frozen and stored at −80° C. for not more than 3-4 months.
To perform the competition binding assay, thawed membrane homogenate was added to each well of a 96-well plate (20 μg/well). […] The filter plates were dried at 50° C. for 20 mins, incubated with microscint 20 for 10 minutes and finally, the counts were read on TopCount (Perkin Elmer).

[2] = Drug levels in blood plasma and homogenized brain tissue by mass spectroscopy; assay type: in vivo, mouse; conditions: intravenous; for concentration at 15 min: CD-1, mouse, 3 mg/Kg i.v. dose, ex vivo occupancy study, mice; for concentration at 21 min: 3 mg/Kg i.v., end of mouse forced swim test
Method: as §1
Mouse Forced swim test (mFST). Forced Swim Test (FST) is an animal model used to assess antidepressant compounds in preclinical studies. The FST was performed similar to the method of Porsolt et al. with modifications (Porsolt R D, Bertin A, Jalfre M. Behavioral despair in mice: a primary screening test for antidepressants. Arch Int Pharmacodyn Thér 1977; 229:327-36). In this paradigm, mice are forced to swim in an inescapable cylinder filled with water. Under these conditions, mice will initially try to escape and eventually develop immobility behavior; this behavior is interpreted as a passive stress-coping strategy or depression-like behavior. Swim tanks were positioned inside a box made of plastic. Each tank was separated from each other by opaque plastic sheets to the height of cylinders. Three mice were subjected to test at a time. Swim sessions were conducted for 6 min by placing mice in individual glass cylinders (46 cm height×20 cm diameter) containing water (20-cm deep, maintained at 24-25° C.). […] The mouse was judged to be immobile whenever it remained floating passively without struggling in the water and only making those movements necessary to keep its nose/head above the water and to keep it afloat. The duration of immobility was evaluated during the total 6 min of the test and expressed as duration (sec) of immobility. Each mouse was tested only once. At the end of each session, mice were dried with a dry cloth and returned to their home cage placed on a thermal blanket to prevent hypothermia. Water was replaced after each trial. All testing sessions were recorded with a video camera (Sony Handicam, Model: DCR-HC38E; PAL) and scoring was done using the Forced Swim Scan, Version 2.0 software (Clever Systems Inc., Reston, Va., USA; see Hayashi E, Shimamura M, Kuratani K, Kinoshita M, Hara H. Automated experimental system capturing three behavioral components during murine forced swim test. Life Sci. 2011 February 28; 88 (9-10): 411-7 and Yuan P, Tragon T, Xia M, Leclair C A, Skoumbourdis A P, Zheng W, Thomas C J, Huang R, Austin C P, Chen G, Guitart X. Phosphodiesterase 4 inhibitors enhance sexual pleasure-seeking activity in rodents. Pharmacol Biochem Behav. 2011; 98(3):349-55). For NCE testing: Test compound was administered in mice 15 min before swim session by i.v. route and immobility time was recorded for next 6 min. […] The NR2B receptor occupancy was determined as reported above and was determined to be 67%.

hERG channels = molecular target: T3, hERG channels (Homo sapiens, UniProt Q12809); assay: hERG electrophysiology assay (patch clamp); assay type: cell-based; conditions: HEK 293 cells stably expressing hERG channels, tail current
T3 construct: expressed in transfected cells
Method: hERG electrophysiology assay. The experimental compounds were assessed for hERG activity on HEK 293 cells stably expressing hERG channels using patch clamp technique. Coverslips plated with hERG expressing cells were placed in the experimental chamber and were perfused with a solution composed of (in mM): 140 NaCl, 4 KCl, 1.8 CaCl2, 1 MgCl2, 10 Glucose, 10 HEPES (pH 7.4, NaOH) at room temperature. Borosilicate patch pipettes had tip resistances of 2-4 Mohms when filled with an internal solution containing: 130 KCl, 1 MgCl2, 1 CaCl2, 10 EGTA, 10 HEPES, 5 ATP-K2 (pH 7.2, KOH). The cells were clamped at −80 mV in whole cell configuration using an Axopatch 200B (Axon instruments, Union City, Calif.) patch clamp amplifier controlled by pClamp (Axon instruments) software. […] First, tail currents were recorded in presence of extracellular solution alone (control) and subsequently, in extracellular solution containing increasing compound concentrations. […] The percentage inhibition at each concentration was calculated as reduction in peak tail current with respect to the peak tail current recorded in the presence of control solution. […]

mice = assay: Mouse Forced swim test (mFST); assay type: in vivo; conditions: 3 mg/Kg i.v., 15 min before swim session, 6 min test
Method: Mouse Forced swim test (mFST). Forced Swim Test (FST) is an animal model used to assess antidepressant compounds in preclinical studies. The FST was performed similar to the method of Porsolt et al. with modifications (Porsolt R D, Bertin A, Jalfre M. Behavioral despair in mice: a primary screening test for antidepressants. Arch Int Pharmacodyn Thér 1977; 229:327-36). In this paradigm, mice are forced to swim in an inescapable cylinder filled with water. Under these conditions, mice will initially try to escape and eventually develop immobility behavior; this behavior is interpreted as a passive stress-coping strategy or depression-like behavior. […] The duration of immobility was evaluated during the total 6 min of the test and expressed as duration (sec) of immobility. […] All testing sessions were recorded with a video camera (Sony Handicam, Model: DCR-HC38E; PAL) and scoring was done using the Forced Swim Scan, Version 2.0 software (Clever Systems Inc., Reston, Va., USA; see Hayashi E, Shimamura M, Kuratani K, Kinoshita M, Hara H. Automated experimental system capturing three behavioral components during murine forced swim test. Life Sci. 2011 February 28; 88 (9-10): 411-7 and Yuan P, Tragon T, Xia M, Leclair C A, Skoumbourdis A P, Zheng W, Thomas C J, Huang R, Austin C P, Chen G, Guitart X. Phosphodiesterase 4 inhibitors enhance sexual pleasure-seeking activity in rodents. […]

T1 sequence (Q01097 27-1482, other chains not shown): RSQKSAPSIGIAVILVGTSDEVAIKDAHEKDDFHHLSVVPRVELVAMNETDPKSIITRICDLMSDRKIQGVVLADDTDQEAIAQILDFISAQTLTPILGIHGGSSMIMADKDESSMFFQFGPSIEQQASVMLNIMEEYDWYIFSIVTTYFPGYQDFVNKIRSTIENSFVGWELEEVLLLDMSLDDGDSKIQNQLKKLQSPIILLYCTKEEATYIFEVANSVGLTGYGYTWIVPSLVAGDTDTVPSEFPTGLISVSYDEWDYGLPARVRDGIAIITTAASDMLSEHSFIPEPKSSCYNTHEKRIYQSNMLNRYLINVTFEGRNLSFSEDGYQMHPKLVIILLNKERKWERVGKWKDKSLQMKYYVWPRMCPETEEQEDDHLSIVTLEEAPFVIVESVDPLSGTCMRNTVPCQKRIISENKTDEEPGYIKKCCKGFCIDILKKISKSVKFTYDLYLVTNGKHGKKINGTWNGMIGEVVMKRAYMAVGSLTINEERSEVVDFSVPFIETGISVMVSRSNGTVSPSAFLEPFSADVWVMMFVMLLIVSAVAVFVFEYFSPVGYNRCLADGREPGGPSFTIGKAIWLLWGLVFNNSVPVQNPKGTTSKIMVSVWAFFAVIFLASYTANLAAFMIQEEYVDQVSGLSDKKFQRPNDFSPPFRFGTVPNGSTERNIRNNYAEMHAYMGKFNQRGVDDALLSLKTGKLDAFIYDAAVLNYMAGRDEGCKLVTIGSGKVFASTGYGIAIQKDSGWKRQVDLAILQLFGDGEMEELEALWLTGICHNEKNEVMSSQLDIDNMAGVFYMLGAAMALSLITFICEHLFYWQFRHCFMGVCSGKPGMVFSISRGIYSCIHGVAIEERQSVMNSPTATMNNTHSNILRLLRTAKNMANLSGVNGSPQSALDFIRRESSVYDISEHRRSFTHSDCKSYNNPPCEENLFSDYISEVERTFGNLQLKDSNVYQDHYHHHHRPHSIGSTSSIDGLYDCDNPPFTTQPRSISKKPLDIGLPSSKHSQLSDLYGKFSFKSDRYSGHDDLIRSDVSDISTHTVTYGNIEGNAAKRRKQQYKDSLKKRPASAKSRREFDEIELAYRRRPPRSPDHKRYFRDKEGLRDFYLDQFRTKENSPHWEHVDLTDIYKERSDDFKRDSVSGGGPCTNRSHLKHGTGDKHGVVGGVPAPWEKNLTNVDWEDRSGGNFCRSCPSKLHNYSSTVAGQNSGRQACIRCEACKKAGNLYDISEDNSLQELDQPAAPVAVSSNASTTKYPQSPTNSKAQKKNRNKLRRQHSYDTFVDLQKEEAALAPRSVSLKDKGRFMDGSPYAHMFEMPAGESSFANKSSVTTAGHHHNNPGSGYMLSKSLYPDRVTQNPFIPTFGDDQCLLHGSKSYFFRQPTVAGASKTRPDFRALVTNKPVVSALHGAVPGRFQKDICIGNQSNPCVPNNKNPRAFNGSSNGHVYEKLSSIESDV
T3 sequence (Q12809 whole entry): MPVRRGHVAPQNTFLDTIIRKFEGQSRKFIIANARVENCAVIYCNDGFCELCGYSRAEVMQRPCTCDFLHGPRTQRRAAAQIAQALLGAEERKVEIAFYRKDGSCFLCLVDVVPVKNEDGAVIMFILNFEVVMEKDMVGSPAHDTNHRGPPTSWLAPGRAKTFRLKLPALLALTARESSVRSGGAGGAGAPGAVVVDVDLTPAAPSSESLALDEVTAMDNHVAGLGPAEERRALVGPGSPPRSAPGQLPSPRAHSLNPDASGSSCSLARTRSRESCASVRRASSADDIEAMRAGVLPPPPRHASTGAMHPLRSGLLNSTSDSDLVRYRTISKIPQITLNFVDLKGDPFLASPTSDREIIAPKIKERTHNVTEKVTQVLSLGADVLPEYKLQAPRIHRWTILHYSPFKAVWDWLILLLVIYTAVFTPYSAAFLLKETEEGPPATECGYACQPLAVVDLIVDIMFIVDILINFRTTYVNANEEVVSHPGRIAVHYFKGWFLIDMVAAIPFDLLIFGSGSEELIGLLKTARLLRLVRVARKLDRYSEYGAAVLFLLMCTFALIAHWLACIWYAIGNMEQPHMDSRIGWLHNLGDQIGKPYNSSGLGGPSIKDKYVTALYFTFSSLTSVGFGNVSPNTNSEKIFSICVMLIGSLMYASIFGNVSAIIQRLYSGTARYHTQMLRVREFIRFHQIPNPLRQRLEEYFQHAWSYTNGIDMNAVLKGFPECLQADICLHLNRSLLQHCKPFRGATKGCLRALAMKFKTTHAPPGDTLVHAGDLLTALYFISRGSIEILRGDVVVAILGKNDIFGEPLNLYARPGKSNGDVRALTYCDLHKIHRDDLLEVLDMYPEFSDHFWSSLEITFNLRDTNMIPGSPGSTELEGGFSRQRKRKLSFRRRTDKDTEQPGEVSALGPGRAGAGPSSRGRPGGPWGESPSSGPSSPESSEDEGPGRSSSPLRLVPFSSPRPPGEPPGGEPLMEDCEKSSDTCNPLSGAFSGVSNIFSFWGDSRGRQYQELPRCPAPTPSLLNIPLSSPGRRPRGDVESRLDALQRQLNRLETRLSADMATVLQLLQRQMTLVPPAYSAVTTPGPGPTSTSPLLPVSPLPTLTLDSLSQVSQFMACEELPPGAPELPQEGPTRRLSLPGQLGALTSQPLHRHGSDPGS
T2 sequence (Q00960 27-1482, other chains not shown): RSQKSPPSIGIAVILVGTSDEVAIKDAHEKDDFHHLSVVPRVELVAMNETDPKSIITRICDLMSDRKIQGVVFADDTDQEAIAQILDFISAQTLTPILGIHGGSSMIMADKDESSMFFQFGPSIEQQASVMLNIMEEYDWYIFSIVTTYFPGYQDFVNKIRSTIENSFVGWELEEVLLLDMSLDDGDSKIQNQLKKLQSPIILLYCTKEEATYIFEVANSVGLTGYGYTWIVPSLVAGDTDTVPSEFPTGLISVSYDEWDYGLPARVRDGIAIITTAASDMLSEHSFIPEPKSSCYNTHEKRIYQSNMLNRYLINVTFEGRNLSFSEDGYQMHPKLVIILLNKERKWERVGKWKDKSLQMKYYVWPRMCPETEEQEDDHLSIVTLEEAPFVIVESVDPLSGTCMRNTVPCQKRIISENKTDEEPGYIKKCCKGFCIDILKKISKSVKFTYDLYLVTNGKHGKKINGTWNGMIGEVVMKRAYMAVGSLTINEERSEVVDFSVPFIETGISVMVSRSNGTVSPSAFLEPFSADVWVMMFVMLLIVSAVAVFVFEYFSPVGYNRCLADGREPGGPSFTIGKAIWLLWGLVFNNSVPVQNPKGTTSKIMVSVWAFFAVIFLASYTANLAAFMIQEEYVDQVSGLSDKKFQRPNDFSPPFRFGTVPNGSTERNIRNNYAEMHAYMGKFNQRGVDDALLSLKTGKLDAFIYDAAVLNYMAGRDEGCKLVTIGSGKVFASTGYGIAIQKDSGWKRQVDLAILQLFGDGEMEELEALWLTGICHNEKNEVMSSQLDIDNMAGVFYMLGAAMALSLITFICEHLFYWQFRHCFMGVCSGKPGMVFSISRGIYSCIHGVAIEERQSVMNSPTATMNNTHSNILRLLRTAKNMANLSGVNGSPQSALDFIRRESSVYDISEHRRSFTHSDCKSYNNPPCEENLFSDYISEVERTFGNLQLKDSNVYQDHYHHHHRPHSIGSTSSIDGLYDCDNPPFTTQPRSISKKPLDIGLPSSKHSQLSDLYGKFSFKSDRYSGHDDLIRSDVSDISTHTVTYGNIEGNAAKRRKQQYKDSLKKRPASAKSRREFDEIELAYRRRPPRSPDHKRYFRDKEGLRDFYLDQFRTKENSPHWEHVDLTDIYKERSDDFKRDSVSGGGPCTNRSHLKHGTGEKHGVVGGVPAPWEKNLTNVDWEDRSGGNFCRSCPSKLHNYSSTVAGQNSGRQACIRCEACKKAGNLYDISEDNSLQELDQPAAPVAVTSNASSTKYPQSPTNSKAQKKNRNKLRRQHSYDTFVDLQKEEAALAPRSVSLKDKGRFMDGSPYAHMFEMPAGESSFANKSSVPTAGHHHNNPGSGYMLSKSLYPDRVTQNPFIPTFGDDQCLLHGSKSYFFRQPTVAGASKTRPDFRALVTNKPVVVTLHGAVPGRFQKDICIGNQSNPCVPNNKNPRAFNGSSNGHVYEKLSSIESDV

Row | pKi [1] | receptor occupancy at 3 mg/kg (NR2B-subtype receptors; 3 mg/Kg i.v. dose, CD-1 mice, forebrains harvested 15 minutes post-dosing) [%] | receptor occupancy at 3 mg/kg (NR2B-subtype receptors; 3 mg/Kg i.v., mice of the forced swim test) [%] | concentration at 15 min ([2]; brain homogenate, read-out: drug levels in the homogonized brain tissue) [nM] | concentration at 15 min ([2]; plasma, read-out: Drug levels in the blood plasma) [nM] | concentration at 21 min ([2]; brain, read-out: Drug levels in the brain) [nM] | concentration at 21 min ([2]; plasma, read-out: Drug levels in the plasma) [nM] | Compound | occupancy of brain-resident NR2B-subtype receptors (in words) (NR2B-subtype receptors; animals after dosing) | pIC50 (hERG channels) | immobility time (mice)
1 |  |  |  |  |  |  |  | O=C1C(N2CCN(c3ncc(O)cn3)CC2)CCN1c1ccc(Cl)c(F)c1 (racemic) [Example 1, 1-(4-chloro-3-fluorophenyl)-3-(4-(5-hydroxypyrimidin-2-yl)piperazin-1-yl)pyrrolidin-2-one] | occupies brain-resident NR2B-subtype receptors |  | 
2 | 8.40 | 86 | 67 | 1340 | 1020 | 410 | 314 | Cc1ccc(N2CCC(N3CCN(c4ccc(O)cn4)CC3)C2=O)cc1F (single isomer, unassigned) [Example 14 P1, 1-(3-fluoro-4-methylphenyl)-3-(4-(5-hydroxypyridin-2-yl)piperazin-1-yl)pyrrolidin-2-one] |  | 5.05 | statistically significant decrease
